The values below come from patent publication US8847018B2, “Plants tolerant to HPPD inhibitor herbicides” (Bayer CropScience AG, priority 2009, dated 2014).

Values joined by “and” are separate entries in the source; they are usually repeats but may differ in a detail not shown here. Identical values can stand only once. “Also recorded” adds a separate entry of the source.

Test [1] deals with Rhodococcus HPPD SEQ ID No. 5 (FMP22e). The test is described as follows: biochemical. The test is classed as biochemical, Rhodococcus sp. (strain RHA1), isolate ro03041. Particulars: SEQ ID No. 5.
For test [2], the target named is (Rhodococcus jostii, UniProt Q0SF39). The test is described as follows: HPLC assay of HPPD in vitro kinetic properties. It counts as biochemical, Rhodococcus sp. (strain RHA1), isolate ro02040.
For test [3], the target named is Rhodococcus HPPD SEQ ID No. 19 (FMP23e). The test is described as follows: HPLC assay of HPPD in vitro kinetic properties. Particulars: 2 mM HPP; SEQ ID No. 19. It counts as biochemical, Rhodococcus sp. (strain RHA1), isolate ro02040.
For test [4], the system named is tobacco plants containing FMP23e (HPPD FMP23). Nature of the test: Glasshouse trial, herbicidal damage on T1 tobacco. Particulars: 7 DAT, 100 g AI/ha spray; FMP23e line 188, single T1 plants. It counts as in vivo, Nicotiana tabacum. As to the method: T0 Tobacco plants containing either the gene from Arabidopsis coding for HPPD or the gene FMP22e from Rhodococcus sp. (strain RHA1), isolate ro03041 coding for FMP22 HPPD, or the gene FMP23e from Rhodococcus sp. (strain RHA1), isolate ro02040 mentioned above (Example 3), were transferred to the glasshouse (28/20° C.), to develop further and produce seeds. Those seeds were harvested and put on soil (ED73 mixed with sand and osmocote Pro) to germinate in the glasshouse (28/20° C.). Three to four weeks later, plantlets were transferred to single pots containing the soil mentioned above. Two weeks later, plants of a size 4-6 cm diameter were sprayed with either • tembotrione at 100 gAl/ha prepared from a WP20 (wettable powder 20%) formulation supplemented with ammonium sulfate and methyl ester raps oil, or • isoxaflutole at 100 gAl/ha prepared from a WP20 formulation supplemented with ammonium sulfate and methyl ester raps oil, or • bicyclopyrone at 100 gAl/ha prepared from a WP20 formulation supplemented with ammonium sulfate and methyl ester raps oil, or • “blind formulation” made from a WP20 formulation without active ingredient (Al) supplemented with ammonium sulfate and methyl ester raps oil, and were then transferred to a growth chamber with adequate light conditions (20000 Lux).

Test [5] concerns rice plants containing FMP23e. Nature of the test: Response to tembotrione in glasshouse trials, T0 rice. It counts as in vivo. To be noted: 100 g AI/ha, 7 DAT. The method, then: (§1) T0 rooted plantlets (either selected on phosphinothricin alone or on phosphinothricin supplemented with tembotrione) were transferred to soil in the glasshouse. Following an acclimation period, sufficiently grown plants were treated with the different HPPD inhibitor herbicides. As an example, T0 plants were sprayed with tembotrione of formulation type WP20 100 g Al/ha supplemented with ammonium sulfate and methyl ester raps oil. Seven days after the spray application, the symptoms due to the application of the herbicide were evaluated and compared the symptoms observed on wild type plants submitted to the same treatment.
(§2) The plants were classified in three categories based on the phenotype developed in response to the herbicide seven days after the treatment.

Test [6] relates to rice plants containing FMP22e. The description is as above. It counts as in vivo. To be noted: 100 g AI/ha, 7 DAT. The method, then:
as §1, §2

In test [7] the test system is rice shoots containing FMP23e. The test is described as follows: Bleaching of rice shoots on MS/2 with tembotrione. Particulars: 2 weeks. The test is classed as cell-based. The method, then:
(§3) Rice transformation is achieved using methods well known in the art. Briefly, the Agrobacterium tumefaciens mediated transformation of rice was performed using immature embryos, from the restorer line 6G4317. Briefly, panicles from donor plants were harvested 8-12 days after pollination. The lemma of the immature seed was removed. Seeds were thereafter sterilized using a NaOCl based solution and Tween. The seeds were preinduced with […]. Agrobacterium tumefaciens cells are then co-cultivated with the preinduced seeds in presence of acetosyringone for 4 days at 24° C. in the dark. Thereafter, coleoptile from embryos are removed and washed, then put on a media supplemented with phosphinothricin for 3 weeks at 28° C. under a photoperiod rhythm of 16 hours. Then the growing calli were cut off from the embryos, and transferred to fresh media containing triacillin, phosphinothricin, L-proline and copper (II) sulfate.
(§4) For each callusline and per Tembotrione concentration, 3 shoots, and randomly isolated from different callus pieces, were transferred to MS/2 with Tembotrione. As a general rule, transfer of the shoots from regeneration medium to MS/2 occurred 9 weeks after calli had been put on regeneration medium.
(§5) Cultures were incubated at 26.5° C. (16 hrs. photoperiod) and evaluation of symptoms occurred 2 weeks later.
(§6) New developing leaves of the shoots transferred have been scored on the basis of bleaching and categorized in 3 groups:
(§7) Within the category ‘intermediate bleaching’ a distinction has been made between shoots having new leaves showing only very little bleaching symptoms and thus tending to green leaves, and shoots with new leaves almost completely bleached.

In test [8] the test system is rice shoots containing FMP22e. The test is described as follows: Bleaching of rice shoots on MS/2 with tembotrione. The test is classed as cell-based. Particulars: 2 weeks. The method, then: as §3, §4, §5, §6, §7
The test system of test [9] is soybean plants expressing the FMP22 HPPD protein. Nature of the test: Greenhouse treatment of soybean events with tembotrione. It counts as in vivo. To be noted: one FMP22 event; 100 g AI/ha, ten days after application. The method, then:
(§8) Plants containing the transgene were then sprayed with HPPD inhibitor herbicides, as for example with tembotrione at a rate of 100 g Al/ha. Ten days after the application the symptoms due to the application of the herbicide were evaluated and compared to the symptoms observed on a wild type plants under the same conditions.
(§9) Concerning FMP22, one event expressing the FMP22 HPPD protein have been generated from the green shoots of above and were transferred to the greenhouse. Four weeks after acclimation, i.e. plants at a developmental stage of 3-4 internodes were treated with 100 g Al/ha tembotrione prepared from a WP 20 formulation supplemented with ammonium sulfate and methyl ester raps oil. Ten days after application, the symptoms caused by the application of the HPPD inhibitor herbicide were evaluated and compared to the symptoms observed on treated non-transgenic wild-type soybean plants. […] Concerning FMP23, six events expressing the FMP23 HPPD protein have been generated from the green shoots of above and were transferred to the greenhouse. […] Ten days after application, the symptoms caused by the application of the HPPD inhibitor herbicide were evaluated and compared to the symptoms observed on treated non-transgenic wild-type soybean plants.

For test [10], the system named is soybean plants expressing the FMP23 HPPD protein. The description is as above. It counts as in vivo. To be noted: six FMP23 events; 100 g AI/ha, ten days after application. As to the method: as §8, §9

By kon is commonly meant a measure of how fast the partners come together. Broadly, the koff is the rate constant with which the complex falls apart. By Ki is commonly meant the dissociation constant of the complex between target and ligand, obtained from inhibition or displacement. Compound `CS(=O)(=O)c1ccc(C(=O)C2C(=O)CCCC2=O)c(Cl)c1COCC(F)(F)F` [Tembotrione, 2-[2-chloro-4-(methylsulfonyl)-3-[(2,2,2,-tri-fluoroethoxy)methyl]benzoyl]-1,3-cyclo-hexanedione] returned a pI50 in [1] (2 mM HPP, 3 minutes incubation) of 5.3. Besides, the “percentage of inhibition compared to activity in absence of the inhibitor” value in [1] (5.0 × 10^−6 M inhibitor) amounted to 36%. Besides, in test [2] (read-out: k1 (Kon, association rate constant)), the on-rate (kon) is 3200 M⁻¹ s⁻¹. Also, in test [2] (read-out: k−1 (Koff, enzyme-inhibitor complex dissociation)), the koff is 0.0063 s⁻¹. In addition, the Ki in test [3] stood at 2 µM. The “% injury” value in test [4] was 0% and 5%. In addition, the “Class II (number of plants, temporary light injuries, injury: 10-40%)” value is reported as 10 in test [5] and 19 in [6]. Besides, the “Class III (number of plants, strong injuries, injury: 41-100%)” value in test [5] was found to be 7. The “N° of shoots completely bleached” value in test [7] (1 μM) came to 14; in test [7] (5 μM) it was 25; in test [8] (1 μM), 14; in [8] (5 μM), 16. The “N° of shoots with intermediate bleaching” value in [7] (1 μM) is 5; in test [7] (5 μM) it was 20; in test [8] (1 μM) it was 9; in test [8] (5 μM), 38. Further, the “N° of shoots without bleaching” value in [7] (1 μM) stood at 39; in test [8] (1 μM), 35; in [8] (5 μM), 6. For the same compound, the “symptoms caused by the herbicide” value is recorded as “transitory light bleaching symptoms but recovered 14 days after tembotrione application” in test [9] and “One of the six events didn't show any bleaching phenotype; also recorded: One event showed transitory light bleaching symptoms but recovered 14 days after tembotrione application; also recorded: remaining four events exhibited the bleaching like non-transgenic wild-type soybean plant” in test [10].
